Measurements from patent publication US20240360148A1 (SUVALENT THERAPEUTICS, INC., priority 2021, published 2024).

Molecular target: SAE1 (Homo sapiens (Human), UniProt Q9UBE0+Q9UBT2)
Test: SAE High Throughput Biochemical Assay (HTRF), 15 min preincubation
Details: read-out: 15 min preincubation HTRF IC50 (μM) Ave, SAE1 12.5 nM, ATP 100 μM
Procedure: Assay buffer was prepared [50 mM HEPES, pH 7.5, 0.1% BSA and 10 mM MgCl2] as was the Stop Buffer [100 mM HEPES, pH 7.5, 0.05% Tween20, and 410 mM KF]. The 2×Reaction Buffer [80 nM SUMO-GST, 80 nM UBC9-His, 200 μM ATP and diluted in Assay Buffer] and Antibody Reaction Mix [13.34 nM anti-GSTXL665, 1.66 nM anti-His EuK and Diluted in Stop Buffer] were also prepared. Compounds were dissolved at 200×in DMSO in a 384-well plate. Serial dilutions were performed in DMSO for each compound, and then each concentration was diluted another 50-fold in Assay Buffer, to 4× the final concentration. 2.5 μL of each concentration was transferred into its own well in a 384-well plate. SAE1 was then diluted to 4× in Assay Buffer, and 2.5 μL of 4×SAE1 was mixed into each compound-containing well. After incubating for 15 minutes at RT, 5 μL of 2×Reaction Buffer was mixed into every well. Then after another 45 minutes at RT, 10 μL of Antibody Reaction Mix was added and mixed into every well. This plate was then read on an HTRF-compatible plate reader after 2 hours at RT, and again after sitting at RT overnight. [Final Component Concentrations: SAE1: 12.5 nM; SUMO-GST: 40 nM; UBC9-His: 40 nM; Anti-GST-XL665: 6.67 nM; Anti-His-EuK: 0.83 nM; and ATP: 100 μM] Alternatively, the compounds are tested at a single concentration of 25 micromolar and the percent of control is measured.

Chain of SAE1 (Q9UBE0 whole entry): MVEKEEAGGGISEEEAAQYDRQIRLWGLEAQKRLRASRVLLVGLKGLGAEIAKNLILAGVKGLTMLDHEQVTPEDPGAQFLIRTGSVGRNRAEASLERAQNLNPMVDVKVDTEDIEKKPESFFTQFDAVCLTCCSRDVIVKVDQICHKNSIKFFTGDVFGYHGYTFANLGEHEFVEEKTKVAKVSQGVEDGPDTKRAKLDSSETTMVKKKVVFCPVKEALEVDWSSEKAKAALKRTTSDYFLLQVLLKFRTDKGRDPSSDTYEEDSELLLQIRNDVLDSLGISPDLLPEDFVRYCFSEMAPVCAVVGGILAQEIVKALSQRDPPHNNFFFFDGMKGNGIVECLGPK
Chain of SAE1 (Q9UBT2 whole entry): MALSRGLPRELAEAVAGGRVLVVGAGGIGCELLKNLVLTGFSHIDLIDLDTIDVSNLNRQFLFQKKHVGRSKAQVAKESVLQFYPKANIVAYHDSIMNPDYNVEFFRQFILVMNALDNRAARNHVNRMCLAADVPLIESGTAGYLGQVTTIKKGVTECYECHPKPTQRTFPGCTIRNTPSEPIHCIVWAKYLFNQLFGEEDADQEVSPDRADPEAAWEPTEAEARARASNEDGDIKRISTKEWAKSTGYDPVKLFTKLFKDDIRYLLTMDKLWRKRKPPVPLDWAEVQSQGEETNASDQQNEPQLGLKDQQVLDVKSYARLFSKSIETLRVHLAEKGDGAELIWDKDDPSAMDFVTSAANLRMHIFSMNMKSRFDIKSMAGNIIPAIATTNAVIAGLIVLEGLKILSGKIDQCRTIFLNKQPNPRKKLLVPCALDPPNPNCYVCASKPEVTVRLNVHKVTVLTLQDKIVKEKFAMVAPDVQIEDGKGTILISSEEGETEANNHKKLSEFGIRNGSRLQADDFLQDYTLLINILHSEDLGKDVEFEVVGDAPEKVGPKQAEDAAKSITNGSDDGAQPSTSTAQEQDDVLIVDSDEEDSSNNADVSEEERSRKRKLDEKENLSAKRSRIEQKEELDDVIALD

| SMILES | IC50 |
| --- | --- |
| CCn1cc(-c2ccccc2[C@@H]2CN(C(=O)/C=C/[C@H](N)CO)Cc3sc(C#N)cc32)c(C(F)(F)F)n1 [Example 73, (S)-6-((S,E)-4-Amino-5-hydroxypent-2-enoyl)-4-(2-(1-ethyl-3-(trifluoromethyl)-1H pyrazol-4-yl)phenyl)-4,5,6,7-tetrahydrothieno[2,3-c]pyridine-2-carbonitrile] | 21.9 µM |
| CCn1cc(-c2ccccc2[C@@H]2CN(C(=O)/C=C/C3COCCN3)Cc3sc(C#N)cc32)c(C(F)(F)F)n1 (stereo partly drawn) [Example 76, (4S)-4-(2-(1-Ethyl-3-(trifluoromethyl)-1 H-pyrazol-4-yl)phenyl)-6-((E)-3-(morpholin-3-yl)acryloyl)-4,5,6,7-tetrahydrothieno[2,3-c]pyridine-2-carbonitrile] | 14.7 µM |
| CCn1cc(-c2ccccc2[C@@H]2CN(C(=O)/C=C/C(C)NC)Cc3sc(C#N)cc32)c(C(F)(F)F)n1 (stereo partly drawn) [Example 77, (4S)-4-(2-(1-Ethyl-3-(trifluoromethyl)-1 H pyrazol-4-yl)phenyl)-6-((E)-4-(methylamino)pent-2-enoyl)-4,5,6,7-tetrahydrothieno[2,3-c]pyridine-2-carbonitrile] | 9.55 µM |
| CCn1cc(-c2ccccc2[C@@H]2CN(C(=O)/C=C/[C@H]3CCC(C)(C)N3)Cc3sc(C#N)cc32)c(C(F)(F)F)n1 [Example 78, (S)-6-((E)-3-((R)-5,5-Dimethylpyrrolidin-2-yl)acryloyl)-4-(2-(1-ethyl-3-(trifluoromethyl)-1H pyrazol-4-yl)phenyl)-4,5,6,7-tetrahydrothieno[2,3-c]pyridine-2-carbonitrile] | 6 µM |
| CCn1cc(-c2ccccc2[C@@H]2CN(C(=O)/C=C/[C@@H](COC)NC)Cc3sc(C#N)cc32)c(C(F)(F)F)n1 [Example 85, (S)-4-(2-(1-Ethyl-3-(trifluoromethyl)-1 H-pyrazol-4-yl)phenyl)-6-((S, E)-5-methoxy-4-(methylamino)pent-2-enoyl)-4,5,6,7-tetrahydrothieno[2,3-c]pyridine-2-carbonitrile] | > 25 µM |
| CCn1cc(-c2ccccc2[C@@H]2CN(C(=O)/C=C/[C@H](COC)NC)Cc3sc(C#N)cc32)c(C(F)(F)F)n1 [Example 86, (S)-4-(2-(1-Ethyl-3-(trifluoromethyl)-1 H-pyrazol-4-yl)phenyl)-6-((R, E)-5-methoxy-4-(methylamino)pent-2-enoyl)-4,5,6,7-tetrahydrothieno[2,3-c]pyridine-2-carbonitrile] | 9.1 µM |
| CCn1cc(-c2ccccc2[C@@H]2CN(C(=O)/C=C/[C@@H](C)NC)Cc3sc(C#N)cc32)c(C(F)(F)F)n1 [Example 87, (S)-4-(2-(1-Ethyl-3-(trifluoromethyl)-1 H-pyrazol-4-yl)phenyl)-6-((R, E)-4-(methylamino)pent-2-enoyl)-4,5,6,7-tetrahydrothieno[2,3-c]pyridine-2-carbonitrile] | 18.2 µM |
| CCn1cc(-c2c(F)cccc2[C@@H]2CN(C(=O)/C=C/[C@@H](C)NC)Cc3sc(C#N)cc32)c(C(F)(F)F)n1 [Example 88, (S)-4-(2-(1-Ethyl-3-(trifluoromethyl)-1H pyrazol-4-yl)-3-fluorophenyl)-6-((R,E)-4-(methylamino)pent-2-enoyl)-4,5,6,7-tetrahydrothieno[2,3-c]pyridine-2-carbonitrile] | 2.7 µM |
| CCn1cc(-c2ccccc2[C@@H]2CN(C(=O)/C=C/CNC3(C)COC3)Cc3sc(C#N)cc32)c(C(F)(F)F)n1 [Example 95, (S, E)-4-(2-(1-Ethyl-3-(trifluoromethyl)-1 H-pyrazol-4-yl)phenyl)-6-(4-((3-methyloxetan-3-yl)amino)but-2-enoyl)-4,5,6,7-tetrahydrothieno[2,3-c]pyridine-2-carbonitrile] | 15.6 µM |
| CCn1cc(-c2ccccc2[C@@H]2CN(C(=O)/C=C/CNC3(C)CCOC3)Cc3sc(C#N)cc32)c(C(F)(F)F)n1 (stereo partly drawn) [Example 97, (4S)-4-(2-(1-Ethyl-3-(trifluoromethyl)-1 H-pyrazol-4-yl)phenyl)-6-((E)-4-((3-methyltetrahydrofuran-3-yl)amino)but-2-enoyl)-4,5,6,7-tetrahydrothieno[2,3-c]pyridine-2-carbonitrile] | 2.76 µM |
| CCn1cc(-c2ccccc2[C@@H]2CN(C(=O)/C=C/C3(N)CC3)Cc3sc(C#N)cc32)c(C(F)(F)F)n1 [Example 109, (S, E)-6-(3-(1-Aminocyclopropyl)acryloyl)-4-(2-(1-ethyl-3-(trifluoromethyl)-1 H-pyrazol-4-yl)phenyl)-4,5,6,7-tetrahydrothieno[2,3-c]pyridine-2-carbonitrile] | 26.5 µM |
| CCn1cc(-c2ccccc2[C@@H]2CN(C(=O)C#CC3(N)CCC3)Cc3sc(C#N)cc32)c(C(F)(F)F)n1 [Example 137, (S)-6-(3-(1-Aminocyclobutyl)propioloyl)-4-(2-(1-ethyl-3-(trifluoromethyl)-1 H pyrazol-4-yl)phenyl)-4,5,6,7-tetrahydrothieno[2,3-c]pyridine-2-carbonitrile] | 0.36 µM |
| CCn1cc(-c2ccccc2[C@@H]2CN(C(=O)C#CCN3CCN(C)CC3)Cc3sc(C#N)cc32)c(C(F)(F)F)n1 [Example 143, (S)-4-(2-(1-Ethyl-3-(trifluoromethyl)-1 H pyrazol-4-yl)phenyl)-6-(4-(4-methylpiperazin-1-yl)but-2-ynoyl)-4,5,6,7-tetrahydrothieno[2,3-c]pyridine-2-carbonitrile] | 2.18 µM |
| CCn1cc(-c2ccccc2[C@@H]2CN(C(=O)C#CC3CCCNC3)Cc3sc(C#N)cc32)c(C(F)(F)F)n1 (stereo partly drawn) [Example 145, (4S)-4-(2-(1-Ethyl-3-(trifluoromethyl)-1 H-pyrazol-4-yl)phenyl)-6-(3-(piperidin-3-yl)propioloyl)-4,5,6,7-tetrahydrothieno[2,3-c]pyridine-2-carbonitrile] | 5.62 µM |
| CN(C)C/C=C/C(=O)N1Cc2sc(C#N)cc2C(c2ccccc2-c2c[nH]nc2C(F)(F)F)C1 (stereo not shown) [Example 152, (E)-6-(4-(Dimethylamino)but-2-enoyl)-4-(2-(3-(trifluoromethyl)-1H-pyrazol-4-yl)phenyl)-4,5,6,7-tetrahydrothieno[2,3-c]pyridine-2-carbonitrile] | 10.4 µM |
| CN(C)C/C=C/C(=O)N1Cc2sc(C#N)cc2[C@H](c2ccccc2-c2c[nH]nc2C(F)(F)F)C1 [Example 153, (S, E)-6-(4-(Dimethylamino)but-2-enoyl)-4-(2-(3-(trifluoromethyl)-1 H-pyrazol-4-yl)phenyl)-4,5,6,7-tetrahydrothieno[2,3-c]pyridine-2-carbonitrile] | 9.68 µM |
| CN(C)C/C=C/C(=O)N1Cc2sc(C#N)cc2C(c2ccccc2-c2cn(CCC#N)nc2C(F)(F)F)C1 (stereo not shown) [Example 154, (E)-4-(2-(1-(2-Cyanoethyl)-3-(trifluoromethyl)-1H pyrazol-4-yl)phenyl)-6-(4-(dimechylamino)but-2-enoyl)-4,5,6,7-tetrahydrothieno[2,3-c]pyridine-2-carbonitrile] | 7.34 µM |
| CN(C)C/C=C/C(=O)N1Cc2sc(C#N)cc2[C@H](c2ccccc2-c2cn(-c3ccncc3F)nc2C(F)(F)F)C1 [Example 157, (S,E)-6-(4-(Dimethylamino)but-2-enoyl)-4-(2-(1-(3-fluoropyridin-4-yl)-3-(trifluoromethyl)-1H pyrazol-4-yl)phenyl)-4,5,6,7-tetrahydrothieno[2,3-c]pyridine-2-carbonitrile] | 18.6 µM |
| CN(C)C/C=C/C(=O)N1Cc2sc(C#N)cc2[C@H](c2ccccc2-c2cn(-c3ncccc3F)nc2C(F)(F)F)C1 [Example 158, (S,E)-6-(4-(Dimethylamino)but-2-enoyl)-4-(2-(1-(3-fluoropyridin-2-yl)-3-(trifluoromethyl)-1H pyrazol-4-yl)phenyl)-4,5,6,7-tetrahydrothieno[2,3-c]pyridine-2-carbonitrile] | 6.37 µM |
| CN(C)C/C=C/C(=O)N1Cc2sc(C#N)cc2[C@H](c2ccccc2-c2cn(-c3ccnc(N)c3)nc2C(F)(F)F)C1 [Example 160, (S, E)-4-(2-(1-(2-Aminopyridin-4-yl)-3-(trifluoromethyl)-1 H-pyrazol-4-yl)phenyl)-6-(4-(dimethylamino)but-2-enoyl)-4,5,6,7-tetrahydrothieno[2,3-c]pyridine-2-carbonitrile] | 24.4 µM |
| CNC(=O)C(C)n1cc(-c2ccccc2[C@@H]2CN(C(=O)/C=C/CN(C)C)Cc3sc(C#N)cc32)c(C(F)(F)F)n1 (stereo partly drawn) [Example 161, 2-(4-(2-((S)-2-Cyano-6-((E)-4-(dimethylamino)but-2-enoyl)-4,5,6,7-tetrahydrothieno[2,3-c]pyridin-4-yl)phenyl)-3-(trifluoromethyl)-1 H-pyrazol-1-yl)-N-methylpropanamide] | 15.8 µM |
| CN(C)C/C=C/C(=O)N1Cc2sc(C#N)cc2[C@H](c2ccccc2-c2cn(CC(N)=O)nc2C(F)(F)F)C1 [Example 162, (S, E)-2-(4-(2-(2-Cyano-6-(4-(dimethylamino)but-2-enoyl)-4,5,6,7-tetrahydrothieno[2,3-c]pyridin-4-yl)phenyl)-3-(trifluoromethyl)-1 H-pyrazol-1-yl)acetamide] | 11.6 µM |
